Drawing on ChEMBL document CHEMBL3526135, “Induction of xenobiotic receptors, transporters, and drug metabolizing enzymes by oxycodone” (Drug Metab Dispos, 2013), this text covers Activity and fold induction for one compound.

Holding throughout (type): ADME, organism-based
What all share (set-up): dose 15 mg/kg, route intraperitoneal

Data set [1] relates to Rattus norvegicus. Description: Effect on Slco1a4 mRNA expression in Sprague-Dawley rat liver at 15 mg/kg, ip administered twice daily every 12 hrs for 8 days by qRT-PCR analysis relative to control. As to conditions: in vivo; call rule not given here. Background: Real-time PCR tracks product formation cycle by cycle.
A further data set relates to Slc25a29. Description: Effect on Slc25a29 mRNA expression in Sprague-Dawley rat liver at 15 mg/kg, ip administered twice daily every 12 hrs for 8 days by microarray analysis relative to control. As to conditions: read-out: FC.
For another data set, the system named is Slc38a4. The data set can be described thus: Effect on Slc38a4 mRNA expression in Sprague-Dawley rat liver at 15 mg/kg, ip administered twice daily every 12 hrs for 8 days by microarray analysis relative to control. To be noted: read-out: FC.
In a further data set the test system is Ugt1a1. The data set can be described thus: Effect on Ugt1a1 mRNA expression in Sprague-Dawley rat liver at 15 mg/kg, ip administered twice daily every 12 hrs for 8 days by microarray analysis relative to control. To be noted: read-out: FC.
Another data set relates to Slc16a10. The data set can be described thus: Effect on Slc16a10 mRNA expression in Sprague-Dawley rat liver at 15 mg/kg, ip administered twice daily every 12 hrs for 8 days by microarray analysis relative to control. As to conditions: read-out: FC.
For a further data set, the system named is CYP4a10. The data set can be described thus: Effect on CYP4a10 mRNA expression in Sprague-Dawley rat liver at 15 mg/kg, ip administered twice daily every 12 hrs for 8 days by microarray analysis relative to control. As to conditions: read-out: FC.
The test system of the next data set is CYP27a1. Description: Effect on CYP27a1 mRNA expression in Sprague-Dawley rat liver at 15 mg/kg, ip administered twice daily every 12 hrs for 8 days by microarray analysis relative to control. To be noted: read-out: FC.
For a further data set, the system named is Por. Description: Effect on Por mRNA expression in Sprague-Dawley rat liver at 15 mg/kg, ip administered twice daily every 12 hrs for 8 days by microarray analysis relative to control. As to conditions: read-out: FC.
Data set [2] concerns Rattus norvegicus. Description: Effect on CYP17a1 mRNA expression in Sprague-Dawley rat liver at 15 mg/kg, ip administered twice daily every 12 hrs for 8 days by qRT-PCR analysis relative to control. To be noted: in vivo.
Data set [3] concerns Rattus norvegicus. The data set can be described thus: Effect on CYP2d2 mRNA expression in Sprague-Dawley rat liver at 15 mg/kg, ip administered twice daily every 12 hrs for 8 days by qRT-PCR analysis relative to control. To be noted: in vivo.
The next data set deals with CYP4b1. The data set can be described thus: Effect on CYP4b1 mRNA expression in Sprague-Dawley rat liver at 15 mg/kg, ip administered twice daily every 12 hrs for 8 days by microarray analysis relative to control. To be noted: read-out: FC.
The test system of data set [4] is Rattus norvegicus. The data set can be described thus: Effect on CAR mRNA expression in Sprague-Dawley rat liver at 15 mg/kg, ip administered twice daily every 12 hrs for 8 days by qRT-PCR analysis relative to control. To be noted: in vivo.
Data set [5] concerns Rattus norvegicus. The data set can be described thus: Effect on Fkbp5 mRNA expression in Sprague-Dawley rat liver at 15 mg/kg, ip administered twice daily every 12 hrs for 8 days by qRT-PCR analysis relative to control. To be noted: in vivo.
Another data set concerns Slc25a15. The data set can be described thus: Effect on Slc25a15 mRNA expression in Sprague-Dawley rat liver at 15 mg/kg, ip administered twice daily every 12 hrs for 8 days by microarray analysis relative to control. To be noted: read-out: FC.
Another data set concerns AhR. The data set can be described thus: Effect on AhR mRNA expression in Sprague-Dawley rat liver at 15 mg/kg, ip administered twice daily every 12 hrs for 8 days by microarray analysis relative to control. To be noted: read-out: FC.
Another data set deals with NR1I2. Description: Effect on NR1I2 mRNA expression in Sprague-Dawley rat liver at 15 mg/kg, ip administered twice daily every 12 hrs for 8 days by microarray analysis relative to control. To be noted: read-out: FC.
The next data set has as its system Ces2. The data set can be described thus: Effect on Ces2 mRNA expression in Sprague-Dawley rat liver at 15 mg/kg, ip administered twice daily every 12 hrs for 8 days by microarray analysis relative to control. To be noted: read-out: FC.
Data set [6] has as its system Rattus norvegicus. Description: Effect on CYP2d1 mRNA expression in Sprague-Dawley rat liver at 15 mg/kg, ip administered twice daily every 12 hrs for 8 days by qRT-PCR analysis relative to control. As to conditions: in vivo.
The subject of a further data set is CYP3A1. The data set can be described thus: Upregulation of CYP3A1 protein expression in Sprague-Dawley rat liver microsomes at 15 mg/kg, ip administered twice daily every 12 hrs for 8 days by Western blot analysis relative to control. To be noted: read-out: FC. In general terms: Microsomes from liver hold many membrane-bound enzymes, among them those of drug oxidation.

Data set [7] concerns Rattus norvegicus. The data set can be described thus: Effect on Ces2 mRNA expression in Sprague-Dawley rat liver at 15 mg/kg, ip administered twice daily every 12 hrs for 8 days by qRT-PCR analysis relative to control. As to conditions: in vivo.
For a further data set, the system named is Slc22a5. The data set can be described thus: Effect on Slc22a5 mRNA expression in Sprague-Dawley rat liver at 15 mg/kg, ip administered twice daily every 12 hrs for 8 days by microarray analysis relative to control. To be noted: read-out: FC.

For `COc1ccc2c3c1O[C@H]1C(=O)CC[C@@]4(O)[C@@H](C2)N(C)CC[C@]314.Cl` [OXYCODONE HYDROCHLORIDE], the outcome with Rattus norvegicus [1], in the data set with Rattus norvegicus [2], in the data set with Rattus norvegicus [3], in the data set on Rattus norvegicus [4], in the data set with Rattus norvegicus [5] and in the data set on Rattus norvegicus [6] was Active. Besides, in the data set with Rattus norvegicus [7], the outcome was Active. In addition, the fold induction at 8 days in the data set with Slc25a29 was 1.5; in the data set with Slc38a4, 1.8; with Ugt1a1 it was 1.6; in the data set with Slc16a10 it was 3; in the data set on CYP4a10, 2; in the data set on CYP27a1, 1.9. Also, the fold induction at 8 days was 7 with Por; 1.9 in the data set on CYP4b1; 2.1 in the data set on Slc25a15; 2.3 in the data set with AhR; 2.9 in the data set with NR1I2; 2.8 with Ces2. Moreover, the fold induction at 8 days turned out to be 12.2 with CYP3A1 and 2.8 with Slc22a5.
